Experimental data published in paper PMC6591251, “Discovery of potent necroptosis inhibitors targeting RIPK1 kinase activity for the treatment of inflammatory disorder and cancer metastasis” (Cell Death & Disease, 2019).
Where two headings read alike, the source gives them in different places.

Key:
[1] = test system: mouse bone marrow-derived macrophages; assay: TLR3- and TLR4-mediated necroptosis (poly(I:C)/z-VAD, LPS/z-VAD); format: cell-based; conditions: mouse BMDM; PK6 10 μM, PK68 100 nM; 24–30 h
Text: In addition to TNF-induced necroptosis, it is known that TLR3 or TLR4 activation can also trigger necroptosis. We further evaluated the effects of PK6 and PK68 on TLR3- and TLR4-mediated necroptosis induced by poly(I:C)/z-VAD and LPS/z-VAD, respectively. […] To investigate the molecular mechanism of PK series-mediated necroptosis inhibition, we examined the effects of these compounds on the major steps of necroptotic signaling, including activation of RIPK1, RIPK3, and MLKL. […] It has been shown previously that RIPK3 activation leads to the formation of RIPK3 puncta during necroptosis.
Fig. 3 PK6 and PK68 block cellular activation of RIPK1, RIPK3, and MLKL upon necroptotic stimuli. a, b Bone marrow-derived macrophages from C57BL/6 mice or rat were pretreated with DMSO, PK6(10 μM), or PK68 (100 nM) for 1 h and subsequently treated with indicated stimuli for 24–30 h. Cell viability was determined by measuring ATP levels. L, LPS (20 ng/ml); P, poly(I:C) (50 μg/ml); S (100 nM); Z (10 μM). […] The distribution of RIPK3 was detected by immunofluorescence. *P < 0.05. **P < 0.01. ***P < 0.001 […]
(§1) The cell viability was analyzed by using the CellTiter-Glo Luminescent Cell Viability Assay kit following the manufacturer’s instructions (Promega). Luminescence was measured with SpectraMax i3x (Molecular Devices).

L929 cells = assay: TNF-induced necroptosis, cell viability by ATP levels; format: cell-based; conditions: Mus musculus, L929, 24 h
Experimental: Necroptosis is tightly regulated by RIP kinases including RIPK1 and RIPK3. To develop new necroptosis inhibitors, we screened a small-molecule library of around 240 potential kinase inhibitors that were designed with novel structures to affect the ATP-binding pocket of protein kinases. Human colon cancer HT-29 cells were treated with these compounds for […], followed by treatment with necroptotic stimuli (TNFα, Smac mimetic, and z-VAD) that are known to activate TNF-mediated necroptosis. After 48 h, cell viability was analyzed by monitoring ATP levels.
Fig. 1 PK6 efficiently blocks TNF-α induced necroptosis in both human and mouse cells. a HT-29 cells cultured in 96-well plates were pretreated with the indicated compounds (10 μM) from a library consisting of ~240 compounds that we designed with novel structures for 1 h and subsequently treated with 40 ng/ml TNF-α (T), 100 nM Smac mimetic (S), and the caspase inhibitor 20 μM z-VAD(Z) for 48 h. Cell viability was assessed by measuring ATP levels. Data are represented as the mean ± standard deviation of duplicates. b Chemical structure of PK6. c Dose response curve and EC50 ± SD value for PK6 in TNF-α induced necroptosis in HT-29 cells. Cells were pretreated with indicated concentrations of PK6 for 1 h prior to the treatment with T (40 ng/ml), S (100 nM), and Z (20 μM) for 48 h. Cell viability was assessed by measuring ATP levels. d U937 cells were pretreated with indicated concentrations of PK6 for 1 h followed by the treatment with T (40 ng/ml), S (100 nM), and Z (20 μM) for 24 h. e MEF cells were pretreated with indicated concentrations of PK6 for 1 h followed by the treatment with T (40 ng/ml), S (100 nM), and Z (20 μM) for 24 h. f L929 cells were pretreated with indicated concentrations of PK6 for 1 h prior to the treatment with S (100 nM) and Z (20 μM) for 24 h.
Fig. 2 Chemical optimization of PK6 leads to improvements in anti-necroptotic activity. a, b The effects of the indicated compounds on cell viability were examined in HT-29 cells (a) and L929 cells (b). HT-29 cells were treated as indicate for 48 h and L929 cells for 24 h. Cell viability was assessed by measuring ATP levels. Data are represented as the mean ± standard deviation of triplicates. c Structure and EC50 ± SD value of each compound are shown in the table. EC50 values are the average of at least two independent determinations. d Lead optimization of PK6 TEXT PRINTED IN THE PICTURE: (c) PK6: EC50(nM) HT-29: 1200±53; EC50(nM) L929: 760±26 | (c) PK67: EC50(nM) HT-29: 250±6.3; EC50(nM) L929: 130±6.8 | (c) PK81: EC50(nM) HT-29: 120±7.6; EC50(nM) L929: 20±0.98 | (c) PK84: EC50(nM) HT-29: 97±6.7; EC50(nM) L929: 45±2.1 | (c) PK93: EC50(nM) HT-29: 130±36; EC50(nM) L929: 30±7.4 | (c) PK86: EC50(nM) HT-29: 73±3.9; EC50(nM) L929: 15±1.0 | (c) PK68: EC50(nM) HT-29: 23±1.4; EC50(nM) L929: 13±0.85
as §1

Row | SMILES | TLR3- and TLR4-mediated necroptosis [1] | EC50 (L929 cells; S 100 nM and Z 20 μM, read-out: EC50, TNF-induced necroptosis) [nM] | EC50 (L929 cells; read-out: EC50(nM) L929) [nM]
1 | CC(=O)Nc1nc2ccc(-c3cnc(Cl)c(NC(=O)Cc4ccccc4)c3)cc2s1 [PK6, N-(5-(2-acetamidobenzo[d]thiazol-6-yl)-2-chloropyridin-3-yl)-2-phenylacetamide] | significantly blocked | ~760 | 
2 | CC(=O)Nc1nc2ccc(-c3cnc(C)c(NC(=O)OC4CCCCC4)c3)cc2s1 [PK68, cyclohexyl (5-(2-acetamidobenzo[d]thiazol-6-yl)-2-methylpyridin-3-yl)carbamate] | significantly blocked |  | 13
